Measurements: ChEMBL document CHEMBL1201862, “PubChem BioAssay data set” (2004)
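Compound exposure: 48 hours, 5 concentrations, 96-well plates. Abbreviation: GI50, concentration required for 50% inhibition of growth.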 Calls of active or inactive are those of the source. No stated cut-off is given here; in the data, active = GI50 up to about 1.1 µM and inactive = higher.

Assays:
Assay in all cases: NCI anticancer screen, dose series, 48 h
786-0 = tested on: 786-0
A498 = tested on: A498
A549 = tested on: A549
ACHN = tested on: ACHN
CCRF-CEM = tested on: CCRF-CEM
COLO 205 = tested on: COLO 205
DLD-1 = tested on: DLD-1
DMS-114 = tested on: DMS-114
DMS-273 = tested on: DMS-273
HCC 2998 = tested on: HCC 2998
HCT-116 = tested on: HCT-116
HCT-15 = tested on: HCT-15
HL-60 = tested on: HL-60
HOP-18 = tested on: HOP-18
HOP-62 = tested on: HOP-62
HOP-92 = tested on: HOP-92
HT-29 = tested on: HT-29
KM-20L2 = tested on: KM-20L2
KM12 = tested on: KM12
LOX IMVI = tested on: LOX IMVI
LXFL 529 = tested on: LXFL 529
M14 = tested on: M14
Malme-3M = tested on: Malme-3M
NCI-H23 = tested on: NCI-H23
NCI-H460 = tested on: NCI-H460
OVCAR-5 = tested on: OVCAR-5
RPMI-8226 = tested on: RPMI-8226
RXF 393 = tested on: RXF 393
SF-268 = tested on: SF-268
SF-295 = tested on: SF-295
SK-MEL-28 = tested on: SK-MEL-28
SK-MEL-2 = tested on: SK-MEL-2
SK-MEL-5 = tested on: SK-MEL-5
SK-OV-3 = tested on: SK-OV-3
SN12C = tested on: SN12C
SNB-19 = tested on: SNB-19
SNB-75 = tested on: SNB-75
SNB-78 = tested on: SNB-78
SR = tested on: SR
SW-620 = tested on: SW-620
TK-10 = tested on: TK-10
U-251 = tested on: U-251
UACC-257 = tested on: UACC-257
XF498 = tested on: XF498
CAKI-1 = tested on: CAKI-1
EKVX = tested on: EKVX
IGROV-1 = tested on: IGROV-1
M19-MEL = tested on: M19-MEL
NCI-H226 = tested on: NCI-H226
NCI-H522 = tested on: NCI-H522
OVCAR-3 = tested on: OVCAR-3
OVCAR-4 = tested on: OVCAR-4
OVCAR-8 = tested on: OVCAR-8
RXF 631 = tested on: RXF 631
SF-539 = tested on: SF-539
UACC-62 = tested on: UACC-62
UO-31 = tested on: UO-31
K562 = tested on: K562
MCF7 = tested on: MCF7
MOLT-4 = tested on: MOLT-4
NCI/ADR-RES = tested on: NCI/ADR-RES

Measured: GI50

Sc1nnc(-c2cccnc2)[nH]1
> 100 µM: HCT-15
inactive: 786-0 > 100 µM | A498 > 100 µM | A549 > 100 µM | ACHN > 100 µM | CCRF-CEM > 100 µM | COLO 205 > 100 µM | DLD-1 > 100 µM | DMS-114 > 100 µM | DMS-273 > 100 µM | HCC 2998 > 100 µM | HCT-116 > 100 µM | HL-60 > 100 µM | HOP-18 > 100 µM | HOP-62 > 100 µM | HOP-92 > 100 µM | HT-29 > 100 µM | KM-20L2 > 100 µM | KM12 > 100 µM | LOX IMVI > 100 µM | LXFL 529 > 100 µM | M14 > 100 µM | Malme-3M > 100 µM | NCI-H23 > 100 µM | NCI-H460 > 100 µM | OVCAR-5 > 100 µM | RPMI-8226 > 100 µM | RXF 393 > 100 µM | SF-268 > 100 µM | SF-295 > 100 µM | SK-MEL-28 > 100 µM | SK-MEL-2 > 100 µM | SK-MEL-5 > 100 µM | SK-OV-3 > 100 µM | SN12C > 100 µM | SNB-19 > 100 µM | SNB-75 > 100 µM | SNB-78 > 100 µM | SR > 100 µM | SW-620 > 100 µM | TK-10 > 100 µM | U-251 > 100 µM | UACC-257 > 100 µM | XF498 > 100 µM

CN(OC(=O)CC(=O)c1ccccc1)C(=O)Cc1ccccc1
inactive: 786-0 > 100 µM | A498 > 100 µM | A549 > 100 µM | ACHN > 100 µM | CAKI-1 > 100 µM | CCRF-CEM > 100 µM | COLO 205 > 100 µM | DLD-1 > 100 µM | DMS-114 > 100 µM | EKVX > 100 µM | HCT-116 > 100 µM | HL-60 > 100 µM | HOP-62 > 100 µM | HT-29 > 100 µM | IGROV-1 > 100 µM | KM-20L2 > 100 µM | KM12 > 100 µM | LOX IMVI > 100 µM | LXFL 529 > 100 µM | M14 > 100 µM | M19-MEL > 100 µM | Malme-3M > 100 µM | NCI-H226 > 100 µM | NCI-H23 > 100 µM | NCI-H460 > 100 µM | NCI-H522 > 100 µM | OVCAR-3 > 100 µM | OVCAR-4 > 100 µM | OVCAR-5 > 100 µM | OVCAR-8 > 100 µM | RPMI-8226 46.7 µM | RXF 631 > 100 µM | SF-268 > 100 µM | SF-295 > 100 µM | SF-539 > 100 µM | SK-MEL-2 > 100 µM | SK-MEL-5 > 100 µM | SK-OV-3 > 100 µM | SN12C > 100 µM | SNB-19 > 100 µM | SNB-78 > 100 µM | SR > 100 µM | SW-620 > 100 µM | TK-10 > 100 µM | U-251 > 100 µM | UACC-257 > 100 µM | UACC-62 > 100 µM | UO-31 > 100 µM
> 100 µM: HCT-15

O=C(O)C1Cc2c([nH]c3ccccc23)C=N1 (stereo not given)
inactive: A498 > 100 µM | A549 > 100 µM | CAKI-1 > 100 µM | CCRF-CEM > 100 µM | COLO 205 > 100 µM | DLD-1 > 100 µM | DMS-114 > 100 µM | DMS-273 > 100 µM | EKVX > 100 µM | HCC 2998 > 100 µM | HCT-116 > 100 µM | HL-60 > 100 µM | HOP-18 30.3 µM | HOP-62 > 100 µM | HOP-92 > 74.1 µM | HT-29 > 100 µM | IGROV-1 > 100 µM | K562 > 100 µM | KM-20L2 > 100 µM | LOX IMVI > 100 µM | M19-MEL > 100 µM | MCF7 > 100 µM | MOLT-4 > 100 µM | Malme-3M > 100 µM | NCI-H23 > 100 µM | NCI-H460 > 100 µM | NCI-H522 > 100 µM | NCI/ADR-RES > 100 µM | OVCAR-3 > 100 µM | OVCAR-4 > 100 µM | OVCAR-5 > 100 µM | OVCAR-8 > 100 µM | RPMI-8226 > 100 µM | RXF 393 > 100 µM | SF-268 > 100 µM | SF-295 > 100 µM | SF-539 > 100 µM | SK-MEL-28 > 100 µM | SK-MEL-2 > 100 µM | SK-MEL-5 > 100 µM | SK-OV-3 > 100 µM | SN12C > 100 µM | SNB-19 > 100 µM | SNB-75 > 100 µM | SNB-78 > 100 µM | SW-620 > 100 µM | U-251 > 100 µM | UACC-257 > 100 µM | UACC-62 > 100 µM | UO-31 > 100 µM | XF498 > 100 µM
> 100 µM: HCT-15
